{
  "source": "ChEMBL document CHEMBL3271950",
  "about": "“2,3-Dihydroxyphenethanolamine as an adrenergic agent” (J Med Chem, 1976)",
  "key": {"[1]": {"assay": "Metal chelating activity of the compound assessed as Cu2+ complex formation at 1 x 10' -3 M by spectrometry", "format": "physicochemical", "details": "1000 µM"}, "Rattus norvegicus [2]": {"test_system": "Rattus norvegicus", "assay": "Decrease in blood pressure in rat at 120 mg/kg", "format": "functional, organism-based", "set-up": "dose 120 mg/kg"}, "Rattus norvegicus [3]": {"species_on_record": "Rattus norvegicus", "assay": "Agonist activity at adrenergic receptor in rat vas deferens at 13 ug/ml", "format": "tissue-based"}, "[4]": {"molecular_target": "T1, Catechol O-methyltransferase (Homo sapiens) (UniProt P21964)", "T1 sequence (whole entry)": "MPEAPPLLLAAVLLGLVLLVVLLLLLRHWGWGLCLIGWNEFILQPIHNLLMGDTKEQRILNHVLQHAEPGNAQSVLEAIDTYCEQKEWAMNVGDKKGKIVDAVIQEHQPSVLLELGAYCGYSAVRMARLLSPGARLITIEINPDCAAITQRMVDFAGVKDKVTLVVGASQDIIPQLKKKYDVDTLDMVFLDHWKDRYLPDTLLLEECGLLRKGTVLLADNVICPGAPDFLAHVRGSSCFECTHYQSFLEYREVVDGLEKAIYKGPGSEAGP", "assay": "Inhibition of catechol-O-methyltransferase (unknown origin)-mediated l-norepinephrine methylation", "details": "concentration not given here"}, "Rattus norvegicus [5]": {"species_on_record": "Rattus norvegicus", "assay": "Potentiation of l-norepinephrine-induced adrenergic receptor activity in rat vas deferens assessed as contraction", "format": "tissue-based"}, "Rattus norvegicus [6]": {"test_system": "Rattus norvegicus", "assay": "Increase blood pressure in rat at 100 mg/kg", "format": "functional, organism-based", "set-up": "dose 100 mg/kg"}, "[7]": {"molecular_target": "T1, Catechol O-methyltransferase (Homo sapiens)", "assay": "Activity of catechol-O-methyltransferase (unknown origin)"}, "Rattus norvegicus [8]": {"test_system": "Rattus norvegicus", "assay": "Decrease in blood pressure in rat at 0.150 mg/kg", "format": "functional, organism-based", "set-up": "dose 0.15 mg/kg"}, "Rattus norvegicus [9]": {"test_system": "Rattus norvegicus", "assay": "Increase blood pressure in rat at 1 mg/kg", "format": "functional, organism-based", "set-up": "dose 1 mg/kg"}, "Rattus norvegicus [10]": {"species_on_record": "Rattus norvegicus", "assay": "Agonist activity at adrenergic receptor in rat vas deferens at 0.165 ug/ml", "format": "tissue-based"}},
  "note": "Active and inactive are the calls of the source. No cut-off for these calls is given here.",
  "data": [
    {"smiles": "Br.NC[C@H](O)c1ccc(O)c(O)c1", "values": [
      {"measurement": "Activity", "setting": "[1]", "result": "Active"}
    ]},
    {"smiles": "CC(C)NCC(O)c1cccc(O)c1O", "note": "(configuration not stated)", "values": [
      {"measurement": "Activity", "setting": "Rattus norvegicus [2]", "result": "Active"}
    ]},
    {"smiles": "Br.NCC(O)c1cccc(O)c1O", "note": "(configuration not stated)", "values": [
      {"measurement": "Activity", "setting": "[1]", "result": "Active"},
      {"measurement": "Activity", "setting": "Rattus norvegicus [3]", "result": "Active"},
      {"measurement": "inhibition", "setting": "[4]", "result": 25, "unit": "%"},
      {"measurement": "Activity", "setting": "Rattus norvegicus [5]", "result": "Active"},
      {"measurement": "Activity", "setting": "Rattus norvegicus [6]", "result": "Active"},
      {"measurement": "Activity", "setting": "[7]", "result": "< 5", "unit": "%"}
    ]},
    {"smiles": "CC(C)NCC(O)c1ccc(O)c(O)c1", "note": "(racemic)", "values": [
      {"measurement": "Activity", "setting": "Rattus norvegicus [8]", "result": "Active"}
    ]},
    {"smiles": "Oc1ccccc1O", "note": "[CATECHOL]", "values": [
      {"measurement": "Activity", "setting": "[1]", "result": "Active"}
    ]},
    {"smiles": "NC[C@@H](O)c1ccc(O)c(O)c1", "values": [
      {"measurement": "Activity", "setting": "Rattus norvegicus [9]", "result": "Active"},
      {"measurement": "Activity", "setting": "Rattus norvegicus [10]", "result": "Active"}
    ]}
  ]
}
